Numbered stars: 1 amine (or outer) side, 2 acyl side, 3 side chain; on linkers, the order of the positions; unused ones are H or OH. Bridge positions count the residues as written; N and C are the ends. Square brackets hold non-standard residues; d marks the D form. Peptide text beside a SMILES is read from it. I, II: the chains in the order shown. Actinocin(9to1) = Cc1c2oc3c(C)ccc(C(=O)[*:1])c3nc-2c(C(=O)[*:2])c(N)c1=O; NMeV = CN[C@H](C(=O)O)C(C)C; Sar = CNCC(=O)O
Legend:
[1] = system: ApCREB-2 mRNA; experiment: Steady state level of ApCREB-2 mRNA after exposure to agents; design: species or system Aplysia; details: following exposure to the agent
Experimental: RNA was isolated from cultures of approximately 200 Aplysia sensory neurons that had been exposed to none, one, or five pulses of 5-HT (10 μM) as indicated. As a control, one half of the RNA was processed omitting reverse transcriptase from the reaction (—RT).
(FIG. 3B) Northern blot analysis of RNA isolated from CNS of Aplysia exposed to 5-HT in vivo. CNSs were dissected from anesthetized animals after exposing them in vivo to 5-HT (50 μM) for the time indicated above each lane. Eight μg of total RNA from each timepoint was separated in a 1% agarose gel, blotted and consecutively hybridized with probes specific for ApCREB-2, ApCREB-1, ApC/EBP, and ribosomal protein S4 transcripts.
Cultures of approximately 200 Aplysia sensory neurons, established by the dissociation of the pleural sensory cluster in a single dish, were exposed to 10 μM 5-HT for 5 min once or five times separated by 20 min. After washing with ASW, cells were lysed by 100 μl of the guanidium thiocyanate solution and the RNA was isolated. For RT-PCR, the isolated RNA was treated with RNAse free DNAse (Boehringer), reextracted as above and processed using RT-PCR kit (Boehringer). The sequence of the primers used were […]

[2] = system: Aplysia sensory-motor neuron cocultures; experiment: Short- and long-term synaptic facilitation (EPSP amplitude in motor neuron L7) in sensory-motor neuron cocultures; type: cell-based
Experimental: Aplysia sensory neurons from the pleural ganglia of adult animals (80–100 g) were cocultured with the motor neuron L7 from juvenile animals (0.5–4 g). After 4–5 days in culture, the strength of the synaptic connections between the sensory and motor cell was measured electrophysiologically, as previously described (Montarolo et al. 1986, Alberini et al., 1994). The motor neuron was impaled with a glass microelectrode filled with 2.5M KCl (10 MΩ (resistance) and its membrane potential was held at 30 mV below its resting value. The EPSP was evoked by extracellular stimulation of the sensory neuron and the data were stored on a 4 channel tape recorder.
Two protocols were used to induce synaptic facilitation in Aplysia cocultures. In the first, after testing the initial EPSP amplitude, 10 μM 5-HT was applied for 5 min (single pulse). […] The amount of facilitation was calculated as the percentage change in EPSP amplitude recorded before and at the different time points after the single 5-HT application. In the other group of experiments, long-term facilitation was evoked by five exposures to 10 μM 5-HT for 5 min each, at 20 min intervals (5 pulses). The facilitation was calculated as the percentage change in EPSP amplitude 24 hr after the five pulses of 5-HT. The antisera, adjusted to the osmolarity of Aplysia neurons (Alberini et al., 1994), were pressure injected into the sensory neurons 1 hr before 5-HT treatment. Where indicated, anisomycin (10 μM) or actinomycin D (50 μg/ml) was added to the cocultures 1 hr before the 5-HT pulse and was present continuously during the 5-HT treatment. All data are presented as mean percentage change ±SEM in the EPSP amplitude measured after treatment, as compared with its initial pretreatment amplitude. A one way analysis of variance and Newman Keuls multiple range test were used to determine the significance of the EPSP changes.

[3] = system: Aplysia sensory-motor neuron cocultures; experiment: Number of fluorescent sensory neuron varicosities contacting the motor neuron; type: cell-based; details: 24 hr after one pulse of 5-HT; antiserum injected 1 hr before training
Experimental: Individual sensory neuron were cocultivated with a single motor cell. Glass micropipettes were filled with a 6% sterile-filtered solution of the fluorescent dye 5(6)-carboxyfluorescein (chromatographically purified; Molecular Probes) in 0.44 M KOH (pH 7.0, resistance 50-90 M. The dye was injected into the sensory neurons immediately after measuring the initial EPSP amplitude by 0.4–0.6 nA hyperpolarizing current pulses (500 ms duration at 1 Hz) for 4–6 min, phase contrast and fluorescence images of the same view areas were taken both before and 24 hr after treatment as previously described (Glanzman et al., 1990; Bailey et al., 1992).
Varicosities were identified according to criteria previously established for sensory neurons in vivo (Bailey et al., 1979; Bailey and Chen, 1983, 1988), and in vitro (Glanzman et al., 1990; Bailey et al., 1992) and included all slightly elongated spheres of approximately 2–3 μm or more in diameter.

[4] = system: ATF4; experiment: Amount of ATF4 during neuronal differentiation of PC12 cells; type: cell-based, rat; details: PC12 cells exposed during differentiation
Text: The above may be tested in a cellular model of neuronal differentiation, specifically the rat pheochromocytoma cells PC12. The cell line is widely used as a model for neuronal differentiation and also for apoptosis, which is programmed neuronal cell death. PC12 cells are undifferentiated in culture and can be differentiated in vitro by exposing them to nerve growth factor (NGF) and cAMP analogs. Withdrawal of these compounds from the cell culture conditions leads to programmed cell death.
It has been investigated whether ATF4 plays a role in the neuronal differentiation of PC12 cells. […] In addition, overexpression of ATF4 in PC12 cells by transfecting expression constructs with constitutive CMV promoter and ATF4 cDNA prevents the PC12 cells from undergoing neuronal differentiation. […] It is important to also study the role of ATF4 in apoptosis. Since both differentiation and cell death in PC12 cell culture involve similar signal transduction pathways, it is reasonable that ATF4 may be involved in this process as well.

[5] = system: CRE-mediated transcription (5xCRE-VIP-lacZ reporter); experiment: 5xCRE-VIP-lacZ reporter, transient cotransfection of F9 cells; type: cell-based, mouse
Experimental: (FIG. 5B) Transient transfections of F9 cells using a 5xCRE-VIP-lacZ reporter plasmid. The indicated expression constructs were cotransfected with 5xCRE-VIP-lacZ reporter as in (A), except that relative (-galactosidase activity was calculated relative to 5xCRE-VIP-lacZ reporter and normalized to the luciferase activity of cotransfected pRSV-luc. ApCREB-2 and ApCREB-1 are activators of 5xCRE-VIP-lacZ reporter, but become mutual repressors when coexpressed.
(§1) Undifferentiated mouse F9 cells were transfected using Lipofectamine (BRL). The β-galactosidase and luciferase activities were quantitated by chemiluminescence (Galacton Plus, Tropix, and a Luciferase assay kit, Promega) in a Turner 20e luminometer.

[6] = system: CRE-mediated transcription (pGL3-CRE reporter); experiment: pGL3-CRE luciferase reporter, transient cotransfection of F9 cells; type: cell-based, mouse
Experimental: (FIG. 5A) Mouse F9 cells were transiently cotransfected with 1 μg of pGL3-CRE reporter plasmid along with 1 μg of each of the indicated expression plasmids: ApCREB-2=pRcRSV-ApCREB-2, ApCREB-1=pRcRSV-ApCREB-1, PKA=pRcRSV-PKA. All transfections were adjusted to 4 μg total DNA with pRcRSV vector DNA.
as §1

[7] = system: UASg-lacZ gene; experiment: GAL4 DNA binding domain activation assay in yeast; type: cell-based, S. cerevisiae; details: fused to the GAL4 DNA binding domain, reporter UASg-lacZ
Experimental: The Aplysia CNS cDNA library was synthesized in pGAD10 using random hexamers and the BRL cDNA synthesis kit. Two libraries constructed from size fractionated cDNAs with average inserts >2 kb (5×10^6 independent clones each) were used in the two-hybrid screening as described previously (Fields and Song., 1989, Durfee et al., 1993, Ausubel et al., 1994). The transcriptional activation properties of ApCREB-2 and its interaction with other proteins in the two-hybrid system was analyzed using the full length ApCREB-2 and its deletion mutants subcloned in pAS1 and pACT2 vectors. The transcriptional activity of ApCREB-2/GAL4 DNA binding domain fusions was determined as decribed (Ma and Ptashne, 1987; Durfee et al., 1993). To analyze the protein interactions, ApCREB-2, ApC/EBP, rat CREB, c-fos and deletion mutants of these proteins in pAS1 and pACT2 were cotransformed into S. cerevisiae Y190, and the expressed β-galactosidase quantified as above.

[8] = 2 hr after one pulse of 5-HT paired with ApCREB-2 antiserum injection, inhibitor present during 5-HT
[9] = 24 hr after one pulse of 5-HT paired with ApCREB-2 antiserum injection, inhibitor present during 5-HT
[10] = expression plasmid alone, with PKA
[11] = expression plasmid alone, without PKA

NCCc1c[nH]c2ccc(O)cc12 [5-HT, serotonin]
level of ApCREB-2 mRNA [1]: not affected
percent change in EPSP amplitude ([2]; 10 min after one pulse of 5-HT): 13.6%
percent change in EPSP amplitude ([2]; 30 min after one pulse of 5-HT, sera injected 1 hr before): 2.83%
percent change in EPSP amplitude ([2]; 2 hr after one pulse of 5-HT, sera injected 1 hr before): −1%
facilitation of the synaptic potential ([2]; massed training: 25 minutes of continuous exposure to 5-HT): +39%
duration of short-term facilitation ([2]; single pulse of 5-HT, no injection): about 10 min
percent change in the number of sensory neuron varicosities [3]: −10%

CNc1ccc2oc(C[C@H]3O[C@@]4(CC[C@H]3C)O[C@H]([C@H](C)C(=O)c3ccc[nH]3)[C@H](C)C[C@H]4C)nc2c1C(=O)O [A23187]
level of ApCREB-2 mRNA [1]: does not change

CC(C)Cn1c(=O)n(C)c(=O)c2[nH]cnc21 [IBMX]
level of ApCREB-2 mRNA [1]: does not change

Nc1ncnc2c1ncn2[C@@H]1O[C@@H]2CO[P@@](O)(=S)O[C@H]2[C@H]1O [Rp-cAMPS]
level of ApCREB-2 mRNA [1]: does not change

Nc1ncnc2c1ncn2[C@@H]1O[C@@H]2COP(O)(=S)O[C@H]2[C@H]1O (some centres unmarked) [Sp-cAMPS]
level of ApCREB-2 mRNA [1]: does not change

Cc1c2oc3c(C)ccc(C(=O)N[C@@H]4C(=O)N[C@H](C(C)C)C(=O)N5CCC[C@H]5C(=O)N(C)CC(=O)N(C)[C@@H](C(C)C)C(=O)O[C@@H]4C)c3nc-2c(C(=O)N[C@@H]2C(=O)N[C@H](C(C)C)C(=O)N3CCC[C@H]3C(=O)N(C)CC(=O)N(C)[C@@H](C(C)C)C(=O)O[C@@H]2C)c(N)c1=O [actinomycin D] (I: T[dV]P[Sar][NMeV] / II: T[dV]P[Sar][NMeV]; ester I:1-I:C, II:1-II:C; linker I:N-II:N via Actinocin(9to1))
percent change in EPSP amplitude [2, 8]: +10.12%
percent change in EPSP amplitude [2, 9]: 7.87%

COc1ccc(C[C@H]2NC[C@H](O)[C@H]2OC(C)=O)cc1 [anisomycin]
level of ApCREB-2 mRNA [1]: does not change
percent change in EPSP amplitude [2, 8]: +19.17%
percent change in EPSP amplitude [2, 9]: +3.67%

C=C1[C@@H](O)[C@@H]2O[C@]3(CC[C@H](/C=C/[C@@H](C)[C@@H]4CC(C)=C[C@@]5(O[C@H](C[C@@](C)(O)C(=O)O)CC[C@H]5O)O4)O3)CC[C@H]2O[C@@H]1[C@@H](O)C[C@H](C)[C@H]1O[C@@]2(CCCCO2)CC[C@H]1C [okadaic acid]
level of ApCREB-2 mRNA [1]: does not change

NGF: nerve growth factor
amount of ATF4 [4]: dramatically reduced

rat CREB-1: wild type rat CREB expressed from pRcRSV-CREB341
relative activation [5, 10]: 68.82±7.3
relative activation [5, 11]: 7.65±0.65

B1: ApCREB-2: Aplysia bZIP transcription factor, 378 amino acids (SEQ ID NO 1), expressed from pRcRSV-ApCREB-2 (protein)
chain: MELDLWSEDFQLAREWGLEMPVVQTDGQFGDLKSTSRHGGDESLSLQPQGATLKLEPFEEDVLGAEWMESSDLGSFLDALGDNHERLHPFESNLLEFTSLITPDDSTVSKDILSSTLQFPTQPVNIPLYASHGAEDFSAETEFENHLSPPDSPEQVAPVINLEPVELTASHMTVISPDGLLGGMELASESLTFTELDFVNFNDSAVGSIGGAEELLGSPLSVDDVESTISFSGPSSPETSQSSIIESSPELYKVISTSSIDASKRFSPYSRSSKSKQSVKTSDAKAPRKTRTPAQPVPEHVIMEHLDKKDRKKLQNKNAAIRYRMKKKGEAQGIKGEEQELEELNTKLKTKVDDLQREIKYMKNLMEDVCKAKGIQLKM
relative activation ([6]; cotransfected with ApCREB-1, absence of PKA catalytic subunit): 0.96±0.15
relative activation ([6]; cotransfected with ApCREB-1, presence of PKA catalytic subunit): 1.64±0.20
relative activation ([5]; cotransfected with ApCREB-1, absence of PKA): 1.84±0.25
relative activation ([5]; cotransfected with ApCREB-1, presence of PKA): 4.12±0.53
relative activation ([5]; cotransfected with rat CREB-1, with PKA): 5.15±0.62
relative activation ([5]; cotransfected with rat CREB-1, without PKA): 2.27±0.3
relative activation [5, 10]: 43.12±5.1
relative activation [5, 11]: 2.46±0.2
relative activity as compared to wild type GAL4 [7]: 82%
